According to paper PMC2990348 (Journal of medicinal chemistry, 2010):
“Also recorded” adds a separate entry of the source. Read-outs that look alike come from different tables or passages of the source.

Tests used:
hepatitis C virus (HCV) = settings: read-out: IC50, replication of hepatitis C virus; cited from earlier work
PV RdRP [1] = molecular target: T1, PV RdRP (Poliovirus type 1, UniProt P03300); settings: cited from earlier work
poliovirus (PV) [2] = tested on: poliovirus (PV)
DENV2 replicon = format: cell-based, dengue virus type 2
poliovirus (PV) [3] = test: in vitro; settings: human
in vitro = settings: human
PV RdRP (3D^pol) [4] = molecular target: T2, PV RdRP (3D^pol) (Poliovirus type 1, UniProt P03300); format: biochemical
T2 sequence (P03300 1749-2209 limits assumed): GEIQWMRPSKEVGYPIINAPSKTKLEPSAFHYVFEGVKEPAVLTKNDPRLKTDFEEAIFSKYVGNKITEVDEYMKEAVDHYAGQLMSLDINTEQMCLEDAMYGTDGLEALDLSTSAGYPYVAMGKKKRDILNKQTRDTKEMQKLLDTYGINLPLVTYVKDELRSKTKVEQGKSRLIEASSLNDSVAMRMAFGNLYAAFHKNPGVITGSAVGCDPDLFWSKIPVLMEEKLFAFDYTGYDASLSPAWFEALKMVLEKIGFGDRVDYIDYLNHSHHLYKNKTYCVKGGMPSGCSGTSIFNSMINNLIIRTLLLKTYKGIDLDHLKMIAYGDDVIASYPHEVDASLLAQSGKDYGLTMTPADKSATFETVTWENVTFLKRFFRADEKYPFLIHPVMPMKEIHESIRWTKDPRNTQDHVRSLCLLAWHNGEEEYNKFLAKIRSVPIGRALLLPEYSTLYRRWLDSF

PV RdRP (3D^pol) [5] = molecular target: T2, PV RdRP (3D^pol); format: biochemical; remark: listed apart in the source
PV RdRP [6] = molecular target: T1, PV RdRP; format: biochemical
[7] = tested on: dengue virus type 2 (DENV2); settings: read-out: IC50, dengue virus type 2; cited from earlier work

T1 sequence (P03300 1749-2209 limits assumed): as above

C[C@@]1(O)[C@H](O)[C@@H](CO)O[C@H]1n1ccc2c(N)ncnc21 [7-deaza-2'-C-methyladenosine]
IC50 (hepatitis C virus (HCV)): 108 nM

Nc1ncnc2c1ncn2[C@@H]1O[C@H](COP(=O)(O)OP(=O)(O)OP(=O)(O)O)[C@@H](O)[C@H]1O [ATP, adenosine triphosphate]
Efficiency kpol/Kd,app (PV RdRP [1]): 650000 M⁻¹ s⁻¹
kpol (PV RdRP [1]): 87 ± 4 s⁻¹

Cc1ncnc2c1ncn2[C@@H]1O[C@H](CO)[C@@H](O)[C@H]1O [Compound 2, 6-methyl-9-β-D-ribofuranosylpurine, reference compound]
Cytotoxic effects to HeLa cells after 7 h (HeLa S3 cells): pronounced effects
Toxicity relative to 3 (fold less toxic) (HeLa S3 cells; human): ~ 5 fold

Nc1ncnc2c1ccn2[C@@H]1O[C@H](CO)[C@@H](O)[C@H]1O [Compound 3, tubercidin, reference compound]
Cytotoxic effects to HeLa cells after 7 h (HeLa S3 cells): pronounced effects

Cc1ccnc2c1ncn2[C@@H]1O[C@H](CO)[C@@H](O)[C@H]1O [Compound 4, 7-Methyl-3-β-D-ribofuranosyl-3H-imidazo[4,5-b]pyridine]
Activity against PV (poliovirus (PV) [2]): inactive
Cytotoxic effects to HeLa cells after 7 h (HeLa S3 cells): little cytotoxicity
Cytotoxicity (HeLa S3 cells): essentially no cytotoxicity
Inhibition of DENV2 replicon activity (DENV2 replicon): essentially no inhibition

Cc1nccc2c1ncn2[C@@H]1O[C@H](CO)[C@@H](O)[C@H]1O [Compound 5, 3-deaza-6-methyl-9-β-D-ribofuranosylpurine]
Activity against PV (poliovirus (PV) [2]): inactive
Antiviral activity in plaque assays of infectivity (poliovirus (PV) [2]): essentially inactive
Cytotoxicity (HeLa S3 cells): essentially no cytotoxicity
Inhibition of DENV2 replicon activity (DENV2 replicon): essentially no inhibition

Cc1ncnc2c1ccn2[C@@H]1O[C@H](CO)[C@@H](O)[C@H]1O [Compound 6, 4-Methyl-7-β-D-ribofuranosylpyrrolo[2,3-d]pyrimidine]
selectivity ratio (poliovirus (PV) [3]): > 100
viability at 100 µM (in vitro): 33%

COC[C@H]1O[C@@H](n2ccc3c(C)ncnc32)[C@H](O)[C@@H]1O [Compound 7, 4-Methyl-7-(5'-O-methyl-β-D-ribofuranosyl)pyrrolo[2,3-d]pyrimidine]
Antiviral activity in plaque assays of infectivity (poliovirus (PV) [2]): eliminated the antiviral effect
Reduction of biological activity on methylation of the 5'-alcohol of 6 (poliovirus (PV) [2]): over 1000 fold
Cytotoxic effects to HeLa cells after 7 h (HeLa S3 cells): little cytotoxicity
Cytotoxicity (HeLa S3 cells): essentially no cytotoxicity
Inhibition of DENV2 replicon activity (DENV2 replicon): essentially no inhibition

Cc1ncnc2c1ncn2[C@@H]1O[C@H](COP(=O)(O)OP(=O)(O)OP(=O)(O)O)[C@@H](O)[C@H]1O [Compound 8, 6-methyl-9-β-D-ribofuranosylpurine 5'-triphosphate]
Inhibition of PV RdRP (PV RdRP (3D^pol) [4]): neither 8 nor 9 inhibit PV RdRP
kcat compared with natural correct nucleotides (PV RdRP (3D^pol) [4]): increases in kcat
Incorporation efficiency across from uracil (PV RdRP (3D^pol) [5]): comparable to natural ATP
Incorporation opposite adenine and guanine (PV RdRP (3D^pol) [5]): almost no incorporation
RNA chain termination (extension of RNA oligomers to +4) (PV RdRP (3D^pol) [5]): neither of these compounds functions as a RNA chain terminator
Efficiency kpol/Kd,app (PV RdRP [6]): 60000 M⁻¹ s⁻¹
Efficiency relative to natural ATP (PV RdRP [6]): only ten-fold lower than natural ATP
Incorporation opposite C by PV RdRP, rate (PV RdRP [6]): extremely slow
Substrate of PV RdRP (PV RdRP [6]): robust substrates
kpol (PV RdRP [6]): 11 ± 0.3 s⁻¹

Cc1ncnc2c1ccn2[C@@H]1O[C@H](COP(=O)(O)OP(=O)(O)OP(=O)(O)O)[C@@H](O)[C@H]1O [Compound 9, 4-Methyl-7-β-D-ribofuranosylpyrrolo[2,3-d]pyrimidine 5'-triphosphate]
Inhibition of PV RdRP (PV RdRP (3D^pol) [4]): neither 8 nor 9 inhibit PV RdRP
kcat compared with natural correct nucleotides (PV RdRP (3D^pol) [4]): increases in kcat
Incorporation efficiency across from uracil (PV RdRP (3D^pol) [5]): comparable to natural ATP
Incorporation opposite adenine and guanine (PV RdRP (3D^pol) [5]): almost no incorporation
RNA chain termination (extension of RNA oligomers to +4) (PV RdRP (3D^pol) [5]): neither of these compounds functions as a RNA chain terminator
Efficiency kpol/Kd,app (PV RdRP [6]): 50000 M⁻¹ s⁻¹
Efficiency relative to natural ATP (PV RdRP [6]): only ten-fold lower than natural ATP
Incorporation opposite C by PV RdRP, rate (PV RdRP [6]): extremely slow
Substrate of PV RdRP (PV RdRP [6]): robust substrates; also recorded: efficient substrate
kpol (PV RdRP [6]): 6 ± 0.5 s⁻¹

C#C[C@@]1(O)[C@H](O)[C@@H](CO)O[C@H]1n1ccc2c(N)ncnc21 [NITD008, 7-deaza-2'-C-ethynyladenosine]
IC50 [7]: 640 nM

NC(=O)c1ncn([C@@H]2O[C@H](COP(=O)(O)OP(=O)(O)OP(=O)(O)O)[C@@H](O)[C@H]2O)n1 [RTP, ribavirin triphosphate]
Efficiency kpol/Kd,app (PV RdRP [1]): 30 M⁻¹ s⁻¹
kpol (PV RdRP [1]): 0.014 ± 0.001 s⁻¹
Efficiency relative to 8 or 9 (PV RdRP [6]): approximately three orders magnitude lower
